Reference: patent publication US8247211B2, “Glycopeptide antibiotics” (American Cyanamid Company, priority 2001, dated 2012)
In brackets after ≈: the same amount, converted by molar mass.

Columns and labels:
Assay in all cases: In vitro antibacterial evaluation: minimum inhibitory concentration (MIC), broth dilution method
Format in all cases: cell-based
[1] = system: Staphylococcus sp.; conditions: for MIC Coagulase Negative Staphylococcus (GC 4537): strain GC 4537; for MIC Coagulase Negative Staphylococcus (GC 4538): strain GC 4538; for MIC Coagulase Negative Staphylococcus (GC 4547): strain GC 4547; for MIC Staphylococcus aureus-SMITH (GC 4536): strain SMITH GC 4536
Description: (§1) The minimum inhibitory concentration (MIC), the lowest concentration of the antibiotic which inhibits growth of the test organism, is determined by the broth dilution method using Muller-Hinton II […] (Baltimore Biological Laboratories) following the recommendations of the National Committee for Clinical Laboratory Standards [Methods for dilution antimicrobial susceptibility tests for bacteria that grow aerobically, approved standard M7-A2, National Committee for Clinical Laboratory Standards, Villanova, Pa].
(§2) An inoculum level of 5×10^5 CFU/mL, and a range of antibiotic concentrations (64-0.06 μg/mL) is used. […] The test organisms include a spectrum of Gram-positive bacteria comprised of Staphylococcus sp., Streptococcus sp. and Enterococcus sp. These organisms include recent clinical isolates that are resistant to methicillin, penicillin and/or vancomycin.

[2] = system: Enterococcus sp.; conditions: for MIC Enterococcus faecalis (ATCC 29212): strain ATCC 29212; for MIC Enterococcus faecalis (GC 4552): strain GC 4552
Description: as §1, §2

[3] = system: Escherichia coli; conditions: for MIC Escherichia coli (GC 4559): strain GC 4559; for MIC Escherichia coli (GC 4560): strain GC 4560
Description: as §1, §2

[4] = broth dilution, 18 hours at 35° C.

Structure (SMILES) | MIC Staphylococcus aureus (ATCC 29213) [1, 4] | MIC Staphylococcus aureus (GC 1131) [1, 4] | MIC Staphylococcus aureus (GC 4535) [1, 4] | MIC Staphylococcus aureus SMITH (GC 4536) [1, 4] | MIC Coagulase Negative Staphylococcus (GC 4537) [1] | MIC Coagulase Negative Staphylococcus (GC 4538) [1] | MIC Coagulase Negative Staphylococcus (GC 4547) [1] | MIC Staphylococcus aureus-SMITH (GC 4536) [1, 4] | MIC Enterococcus faecalis (GC 2242) ([2]; Enterococcus faecalis (GC 2242), broth dilution, 18 hours at 35° C.) | MIC Enterococcus faecalis (ATCC 29212) [2] | MIC Enterococcus faecalis (GC 2242) ([2]; strain GC 2242) | MIC Enterococcus faecalis (GC 4552) [2] | MIC Escherichia coli (GC 4559) [3] | MIC Escherichia coli (GC 4560) [3] | MIC Coagulase Negative Staphylococcus (GC 4537) [1, 4] | MIC Coagulase Negative Staphylococcus (GC 4538) [1, 4] | MIC Coagulase Negative Staphylococcus (GC 4547) [1, 4]
CCCCCC(=O)OCC1OC(Oc2ccc(CC3NC(=O)C(C(C)c4ccccc4)NC(=O)CNC(=O)C(CO)NC(=O)C(C(O)C4CNC(=N)N4C4OC(CO)C(O)C(O)C4O)NC(=O)C(C(O)C4CNC(=N)N4)NC3=O)cc2)C(O)C(O)C1OC1OC(CO)C(O)C(O)C1O (stereo not drawn) [Example 95a, Cyclo[glycyl-β-methylphenylalanyl-O-(6-O-hexanoyl-4-O-hexopyranosylhexopyranosyl)-tyrosyl-3-(2-iminoimidazolidin-4-yl)seryl-3-(3-hexopyranosyl-2-iminoimidazolidin-4-yl)-serylseryl]] | 4 µg/mL (≈ 2.87 µM) | 4 µg/mL (≈ 2.87 µM) | 8 µg/mL (≈ 5.74 µM) | 4 µg/mL (≈ 2.87 µM) | 8 µg/mL (≈ 5.74 µM) | 4 µg/mL (≈ 2.87 µM) | 4 µg/mL (≈ 2.87 µM) | 4 µg/mL (≈ 2.87 µM) | 16 µg/mL (≈ 11.5 µM) | 32 µg/mL (≈ 23 µM) | 16 µg/mL (≈ 11.5 µM) | 32 µg/mL (≈ 23 µM) | >64 µg/mL | 2 µg/mL (≈ 1.44 µM) | – | – | –
CCCCCCC(=O)OCC1OC(N2C(=N)NCC2C(O)C2NC(=O)C(C(O)C3CNC(=N)N3)NC(=O)C(Cc3ccc(OC4OC(CO)C(OC5OC(CO)C(O)C(O)C5O)C(O)C4O)cc3)NC(=O)C(C(C)c3ccccc3)NC(=O)CNC(=O)C(CO)NC2=O)C(O)C(O)C1O (stereo not shown) [Example 97] | >64 µg/mL | >64 µg/mL | >64 µg/mL | >64 µg/mL | >64 µg/mL | >64 µg/mL | >64 µg/mL | >64 µg/mL | – | >64 µg/mL | >64 µg/mL | >64 µg/mL | >64 µg/mL | 2 µg/mL (≈ 1.42 µM) | >64 µg/mL | >64 µg/mL | >64 µg/mL
CCCCCCC(=O)OCC1OC(Oc2ccc(CC3NC(=O)C(C(C)c4ccccc4)NC(=O)CNC(=O)C(CO)NC(=O)C(C(O)C4CNC(=N)N4C4OC(CO)C(O)C(O)C4O)NC(=O)C(C(O)C4CNC(=N)N4)NC3=O)cc2)C(O)C(O)C1OC1OC(CO)C(O)C(O)C1O (stereo not drawn) [Example 97a, Cyclo[glycyl-β-methylphenylalanyl-O-(6-O-heptanoyl-4-O-hexopyranosylhexopyranosyl)-tyrosyl-3-(2-iminoimidazolidin-4-yl)seryl-3-(3-hexopyranosyl-2-iminoimidazolidin-4-yl)-serylseryl]] | 1 µg/mL (≈ 0.711 µM) | 2 µg/mL (≈ 1.42 µM) | 2 µg/mL (≈ 1.42 µM) | 0.5 µg/mL (≈ 0.355 µM) | 4 µg/mL (≈ 2.84 µM) | 2 µg/mL (≈ 1.42 µM) | 2 µg/mL (≈ 1.42 µM) | 0.5 µg/mL (≈ 0.355 µM) | – | 8 µg/mL (≈ 5.68 µM) | 4 µg/mL (≈ 2.84 µM) | 16 µg/mL (≈ 11.4 µM) | >64 µg/mL | 1 µg/mL (≈ 0.711 µM) | 4 µg/mL (≈ 2.84 µM) | 2 µg/mL (≈ 1.42 µM) | 2 µg/mL (≈ 1.42 µM)
